Test results taken from ChEMBL document CHEMBL1130735, “A paclitaxel analogue with a 2(3-->20)abeotaxane skeleton: synthesis and biological evaluation” (Bioorg Med Chem Lett, 1998).
In brackets after ≈: the same amount, converted by molar mass.

Legend:
Assay type in all cases: functional, cell-based
[1] = Cytotoxicity was evaluated against […] cells
[2] = Cytotoxicity was evaluated against MEL28 melanoma cells; settings: Homo sapiens, SK-MEL-28
P388 = test: Cytotoxicity was evaluated against P388 mouse lymphoma cells
HT-29 = test: Cytotoxicity was evaluated against HT-29 human colon adenocarcinoma cells

SMILES	IC50 [1] [µg/mL]	IC50 [2] [µg/mL]	IC50 (P388) [µg/mL]	IC50 (HT-29) [µg/mL]
CC1=C2[C@@H](O)C(=O)[C@@]3(C)CC(C[C@H](OC(=O)c4ccccc4)[C@H](C[C@@H]1OC(=O)[C@H](O)[C@H](NC(=O)c1ccccc1)c1ccccc1)C2(C)C)[C@@H](O)C[C@@H]3O	6 (≈ 8.11 µM)	6 (≈ 8.11 µM)	6 (≈ 8.11 µM)	6 (≈ 8.11 µM)
CC(=O)O[C@H]1C[C@H]2[C@@H](OC(C)=O)/C=C3\C[C@](C)(C(=O)[C@H](O)C(=C1C)C2(C)C)[C@@H](O)C[C@@H]3O	> 10	> 10	> 10	> 10
CC(=O)O[C@H]1C(=O)[C@@]2(C)[C@H]([C@H](OC(=O)c3ccccc3)[C@]3(O)C[C@H](OC(=O)[C@H](O)[C@@H](NC(=O)c4ccccc4)c4ccccc4)C(C)=C1C3(C)C)[C@]1(OC(C)=O)CO[C@@H]1C[C@@H]2O [PACLITAXEL]	0.002 (≈ 0.00234 µM)	0.002 (≈ 0.00234 µM)	0.2 (≈ 0.234 µM)	0.002 (≈ 0.00234 µM)
